For 24 compounds, IC50 results are on record in patent publication US9707233B2, “Heterocyclylamines as PI3K inhibitors” (Incyte Corporation, priority 2011, dated 2017).

Where a name gives a salt, the structure may show the parent alone.

For this assay, the target named is PI3Kδ (p110δ/p85α) (Homo sapiens (Human), UniProt O00329). Put plainly: PI3Kδ scintillation proximity assay (Example A3). As to conditions: 20 μM ATP, 20 μM PIP2, 4 nM PI3Kδ; read-out: PI3Kδ SPA IC50. It counts as biochemical. On the procedure: [γ-^33P]ATP (10 mCi/mL) was purchased from Perkin-Elmer (Waltham, Mass.). […] PI3Kδ (p110δ/p85α) was purchased from Millipore (Bedford, Mass.). ATP, MgCl2, DTT, EDTA, MOPS and CHAPS were purchased from Sigma-Aldrich (St. Louis, Mo.). Wheat Germ Agglutinin (WGA) YSi SPA Scintillation Beads was purchased from GE healthcare life sciences (Piscataway, N.J.).
Sequence of PI3Kδ (p110δ/p85α) (O00329 whole entry): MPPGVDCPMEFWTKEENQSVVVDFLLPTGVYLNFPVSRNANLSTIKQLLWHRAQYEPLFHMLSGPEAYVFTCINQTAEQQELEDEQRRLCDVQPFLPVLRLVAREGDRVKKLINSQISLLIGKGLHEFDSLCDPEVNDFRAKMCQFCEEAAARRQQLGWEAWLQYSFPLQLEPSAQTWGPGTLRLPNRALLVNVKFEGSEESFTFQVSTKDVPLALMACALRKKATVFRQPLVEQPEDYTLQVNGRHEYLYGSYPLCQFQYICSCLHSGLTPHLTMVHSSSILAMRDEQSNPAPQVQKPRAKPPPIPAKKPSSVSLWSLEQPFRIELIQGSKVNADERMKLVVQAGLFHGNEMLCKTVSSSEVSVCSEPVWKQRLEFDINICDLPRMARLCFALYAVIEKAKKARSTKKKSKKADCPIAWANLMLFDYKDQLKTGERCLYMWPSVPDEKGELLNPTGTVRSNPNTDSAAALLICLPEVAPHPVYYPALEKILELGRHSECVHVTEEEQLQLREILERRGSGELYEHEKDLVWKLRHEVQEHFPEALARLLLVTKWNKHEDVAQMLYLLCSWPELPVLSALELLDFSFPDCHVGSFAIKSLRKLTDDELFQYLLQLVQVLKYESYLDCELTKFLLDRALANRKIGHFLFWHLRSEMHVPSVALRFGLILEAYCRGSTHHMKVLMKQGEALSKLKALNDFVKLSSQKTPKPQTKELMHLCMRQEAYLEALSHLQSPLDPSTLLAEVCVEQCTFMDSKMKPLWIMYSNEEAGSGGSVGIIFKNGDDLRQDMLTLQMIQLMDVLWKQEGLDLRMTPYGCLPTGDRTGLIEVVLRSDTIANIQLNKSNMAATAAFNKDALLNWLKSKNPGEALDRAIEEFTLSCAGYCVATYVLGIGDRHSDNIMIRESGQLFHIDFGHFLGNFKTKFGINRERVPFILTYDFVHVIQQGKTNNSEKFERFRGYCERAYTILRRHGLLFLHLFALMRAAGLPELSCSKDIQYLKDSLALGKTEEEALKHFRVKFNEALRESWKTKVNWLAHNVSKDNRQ
Sequence of PI3Kδ (p110δ/p85α) (P27986 whole entry partner): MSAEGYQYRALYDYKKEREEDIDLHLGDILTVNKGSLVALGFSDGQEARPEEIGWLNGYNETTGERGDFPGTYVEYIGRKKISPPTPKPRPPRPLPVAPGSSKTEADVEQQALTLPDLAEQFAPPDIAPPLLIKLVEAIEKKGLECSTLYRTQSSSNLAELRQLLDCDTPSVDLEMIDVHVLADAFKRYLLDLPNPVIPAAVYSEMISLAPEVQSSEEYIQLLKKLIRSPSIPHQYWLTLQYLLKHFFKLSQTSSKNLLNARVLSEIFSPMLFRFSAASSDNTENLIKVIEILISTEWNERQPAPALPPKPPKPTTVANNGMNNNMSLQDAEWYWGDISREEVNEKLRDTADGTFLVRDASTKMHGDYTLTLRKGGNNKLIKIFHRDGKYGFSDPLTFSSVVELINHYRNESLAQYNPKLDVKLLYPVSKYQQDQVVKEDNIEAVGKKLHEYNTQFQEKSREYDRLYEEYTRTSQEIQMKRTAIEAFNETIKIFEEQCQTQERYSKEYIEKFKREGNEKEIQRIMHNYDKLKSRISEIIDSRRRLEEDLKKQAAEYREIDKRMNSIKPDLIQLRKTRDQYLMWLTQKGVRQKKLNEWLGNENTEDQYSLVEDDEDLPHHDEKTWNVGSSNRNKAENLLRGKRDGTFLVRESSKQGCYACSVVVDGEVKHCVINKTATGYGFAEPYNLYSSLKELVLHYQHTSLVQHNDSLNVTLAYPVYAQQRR
The kinase reaction was conducted in polystyrene 384-well matrix white plate from Thermo Fisher Scientific in a final volume of 25 μL. Inhibitors were first diluted serially in DMSO and added to the plate wells before the addition of other reaction components. The final concentration of DMSO in the assay was 0.5%. The PI3K assays were carried out at room temperature in 20 mM MOPS, pH 6.7, 10 mM MgCl2, 5 mM DTT and CHAPS 0.03%. Reactions were initiated by the addition of ATP, the final reaction mixture consisted of 20 μM PIP2, 20 μM ATP, 0.2 μCi [γ-^33P]ATP, 4 nM PI3Kδ. […] 25 mM EDTA, 400 μM ATP. The final concentration of SPA beads was 1.0 mg/mL. After the plate sealing, plates were shaken overnight at room temperature and centrifuged at 1800 rpm for 10 minutes, the radioactivity of the product was determined by scintillation counting on Topcount (Perkin-Elmer). IC50 determination was performed by fitting the curve of percent control activity versus the log of the inhibitor concentration using the GraphPad Prism 3.0 software.
(Scintillation proximity formats need no separation of bound from free tracer.)

The term IC50 denotes the concentration that gives 50% inhibition. In the case of `CCOc1c(C(C)n2nc(C(F)F)c3c(N)ncnc32)cc(Cl)c(F)c1C1CN(CC(C)(C)O)C1` (racemic) [Example 153, 1-[3-(3-{1-[4-Amino-3-(difluoromethyl)-1H-pyrazolo[3,4-d]pyrimidin-1-yl]ethyl}-5-chloro-2-ethoxy-6-fluorophenyl)azetidin-1-yl]-2-methylpropan-2-ol], the concentration for half-maximal inhibition (IC50) was no more than 10 nM. Turning to `CCOc1c(C(C)n2nc(C)c3c(N)ncnc32)cc(Cl)c(C#N)c1-c1ccc(-c2nnn(C)n2)nc1` (racemic) [Example 336, 4-[1-(4-amino-3-methyl-1H-pyrazolo[3,4-d]pyrimidin-1-yl)ethyl]-6-chloro-3-ethoxy-2-[6-(2-methyl-2H-tetrazol-5-yl)pyridin-3-yl]benzonitrile], the 50% inhibitory concentration (IC50) is no more than 10 nM. In the case of `CCOc1c(C(C)n2nc(C)c3c(N)ncnc32)cc(Cl)c(C#N)c1N1CC(COC)C1` (racemic) [Example 341, 4-[1-(4-amino-3-methyl-1H-pyrazolo[3,4-d]pyrimidin-1-yl)ethyl]-6-chloro-3-ethoxy-2-[3-(methoxymethyl)azetidin-1-yl]benzonitrile] it was no more than 10 nM. For the compound `COc1c(C(C)n2nc(C)c3c(N)ncnc32)cc(Cl)c(C)c1-c1cnn(CCO)c1` (single isomer, unassigned) [20 (1st peak), 2-(4-(3-(1-(4-Amino-3-methyl-1H-pyrazolo[3,4-d]pyrimidin-1-yl)ethyl)-5-chloro-2-methoxy-6-methylphenyl)-1H-pyrazol-1-yl)ethanol], the IC50 is no more than 10 nM.

For the compound `COc1c(C(C)n2nc(C)c3c(N)ncnc32)cc(Cl)c(C)c1-c1cnn(CCO)c1` (single isomer, unassigned) [20 (2nd peak), 2-(4-(3-(1-(4-Amino-3-methyl-1H-pyrazolo[3,4-d]pyrimidin-1-yl)ethyl)-5-chloro-2-methoxy-6-methylphenyl)-1H-pyrazol-1-yl)ethanol], the IC50 lay in the range of 50 to 200 nM. As for `COc1c(C(C)n2ccc(=O)c3c(N)ncnc32)cc(Cl)c(C)c1-c1ccc(C(=O)N(C)C)nc1` (single isomer, unassigned) [25 (1st peak), 5-{3-[1-(4-Amino-5-oxopyrido[2,3-d]pyrimidin-8(5H)-yl)ethyl]-5-chloro-2-methoxy-6-methylphenyl}-N,N-dimethylpyridine-2-carboxamide], the IC50 lay in the range of 200 to 500 nM. In the case of `COc1c(C(C)n2ccc(=O)c3c(N)ncnc32)cc(Cl)c(C)c1-c1ccc(C(=O)N(C)C)nc1` (single isomer, unassigned) [25 (2nd peak), 5-{3-[1-(4-Amino-5-oxopyrido[2,3-d]pyrimidin-8(5H)-yl)ethyl]-5-chloro-2-methoxy-6-methylphenyl}-N,N-dimethylpyridine-2-carboxamide], the IC50 is no more than 10 nM. Regarding `COc1c(C(C)n2nc(C)c3c(N)ncnc32)cc(Cl)c(F)c1C1CN(C[C@H](C)O)C1` (single isomer, unassigned) [68 (1st peak)], the IC50 is no more than 10 nM. For `COc1c(C(C)n2nc(C)c3c(N)ncnc32)cc(Cl)c(C#N)c1-c1ccc(C(=O)N(C)C)nc1` (single isomer, unassigned) [313 (2nd peak), 5-{3-[1-(4-amino-3-methyl-1H-pyrazolo[3,4-d]pyrimidin-1-yl)ethyl]-5-chloro-6-cyano-2-methoxyphenyl}-N,N-dimethylpyridine-2-carboxamide], the half-inhibitory concentration (IC50) was no more than 10 nM. In the case of `CCOc1c(C(C)n2nc(C)c3c(N)ncnc32)cc(C)c(C#N)c1-c1ccc(C(=O)N(C)C)nc1` (single isomer, unassigned) [314 (2nd peak), 5-{3-[1-(4-amino-3-methyl-1H-pyrazolo[3,4-d]pyrimidin-1-yl)ethyl]-6-cyano-2-ethoxy-5-methylphenyl}-N,N-dimethylpyridine-2-carboxamide] it was no more than 10 nM; in that of `CCOc1c(C(C)n2nc(C)c3c(N)ncnc32)cc(Cl)c(C#N)c1C1CNC(=O)O1` (single isomer, unassigned) [323 (1st peak), 4-[1-(4-amino-3-methyl-1H-pyrazolo[3,4-d]pyrimidin-1-yl)ethyl]-6-chloro-3-ethoxy-2-(2-oxo-1,3-oxazolidin-5-yl)benzonitrile], no more than 10 nM. As to `CCOc1c(C(C)n2nc(C)c3c(N)ncnc32)cc(Cl)c(C#N)c1C1CNC(=O)O1` (single isomer, unassigned) [323 (3rd peak), 4-[1-(4-amino-3-methyl-1H-pyrazolo[3,4-d]pyrimidin-1-yl)ethyl]-6-chloro-3-ethoxy-2-(2-oxo-1,3-oxazolidin-5-yl)benzonitrile], the IC50 is 50 to 200 nM. Next, `CCOc1c(C(C)n2nc(C)c3c(N)ncnc32)cc(Cl)c(C#N)c1C1CNC(=O)O1` (single isomer, unassigned) [323 (4th peak), 4-[1-(4-amino-3-methyl-1H-pyrazolo[3,4-d]pyrimidin-1-yl)ethyl]-6-chloro-3-ethoxy-2-(2-oxo-1,3-oxazolidin-5-yl)benzonitrile]: no more than 10 nM; `COc1c(C(C)n2nc(C)c3c(N)ncnc32)cc(Cl)c(C)c1C1CNC(=O)CO1` (single isomer, unassigned) [324 (1st peak), 6-{3-[1-(4-Amino-3-methyl-1H-pyrazolo[3,4-d]pyrimidin-1-yl)ethyl]-5-chloro-2-methoxy-6-methylphenyl}morpholin-3-one]: 50 to 200 nM; `COc1c(C(C)n2nc(C)c3c(N)ncnc32)cc(Cl)c(C)c1C1CNC(=O)CO1` (single isomer, unassigned) [324 (2nd peak), 6-{3-[1-(4-Amino-3-methyl-1H-pyrazolo[3,4-d]pyrimidin-1-yl)ethyl]-5-chloro-2-methoxy-6-methylphenyl}morpholin-3-one]: no more than 10 nM. As to `COc1c(C(C)n2nc(C)c3c(N)ncnc32)cc(Cl)c(C)c1C1CN(C(C)C)C1` (single isomer, unassigned) [Example 1, 1-{1-[5-Chloro-3-(1-isopropylazetidin-3-yl)-2-methoxy-4-methylphenyl]ethyl}-3-methyl-1H-pyrazolo[3,4-d]pyrimidin-4-amine bis(trifluoroacetate)], the concentration for half-maximal inhibition (IC50) was no more than 10 nM.

As to `COc1c(C(C)n2nc(C)c3c(N)ncnc32)cc(Cl)c(C)c1-c1ccc(C(=O)N(C)C)c(F)c1` (single isomer, unassigned) [Example 21, 3′-[1-(4-Amino-3-methyl-1H-pyrazolo[3,4-d]pyrimidin-1-yl)ethyl]-5′-chloro-3-fluoro-2′-methoxy-N,N,6′-trimethylbiphenyl-4-carboxamide trifluoroacetate], the IC50 is no more than 10 nM. Take `CNC(=O)c1ccc(-c2c(C)c(Cl)cc(C(C)n3nc(C)c4c(N)ncnc43)c2OC)cc1F` (single isomer, unassigned) [Example 22, 3′-[1-(4-Amino-3-methyl-1H-pyrazolo[3,4-d]pyrimidin-1-yl)ethyl]-5′-chloro-3-fluoro-2′-methoxy-N,6′-dimethylbiphenyl-4-carboxamide trifluoroacetate]: the IC50 is no more than 10 nM. Next, `COc1c(C(C)n2nc(C)c3c(N)ncnc32)cc(Cl)c(C)c1C1CN(C(=O)C2CC2)C1` (single isomer, unassigned) [Example 119, 1-(1-{5-Chloro-3-[1-(cyclopropylcarbonyl)azetidin-3-yl]-2-methoxy-4-methylphenyl}ethyl)-3-methyl-1H-pyrazolo[3,4-d]pyrimidin-4-amine]: no more than 10 nM; `COc1c(C(C)n2nc(C)c3c(N)ncnc32)cc(Cl)c(C)c1C1CN(C(=O)c2cnoc2C)C1` (single isomer, unassigned) [Example 120, 1-[1-(5-Chloro-2-methoxy-4-methyl-3-{1-[(5-methylisoxazol-4-yl)carbonyl]azetidin-3-yl}phenyl)ethyl]-3-methyl-1H-pyrazolo[3,4-d]pyrimidin-4-amine]: no more than 10 nM; `COc1c(C(C)n2nc(C)c3c(N)ncnc32)cc(Cl)c(C)c1C1CN(C(=O)C2(O)CC2)C1` (single isomer, unassigned) [Example 122, 1-[(3-{3-[1-(4-Amino-3-methyl-1H-pyrazolo[3,4-d]pyrimidin-1-yl)ethyl]-5-chloro-2-methoxy-6-methylphenyl}azetidin-1-yl)carbonyl]cyclopropanol]: no more than 10 nM. In the case of `COc1c(C(C)n2nc(C)c3c(N)ncnc32)cc(Cl)c(C)c1C1CN(C(=O)C(C)(C)O)C1` (single isomer, unassigned) [Example 123, 1-(3-{3-[1-(4-Amino-3-methyl-1H-pyrazolo[3,4-d]pyrimidin-1-yl)ethyl]-5-chloro-2-methoxy-6-methylphenyl}azetidin-1-yl)-2-methyl-1-oxopropan-2-ol] it was no more than 10 nM; in that of `COc1c(C(C)n2nc(C)c3c(N)ncnc32)cc(Cl)c(C)c1C1CN(C(=O)c2cn[nH]c2)C1` (single isomer, unassigned) [Example 124, 1-(1-{5-Chloro-2-methoxy-4-methyl-3-[1-(1H-pyrazol-4-ylcarbonyl)azetidin-3-yl]phenyl}ethyl)-3-methyl-1H-pyrazolo[3,4-d]pyrimidin-4-amine], no more than 10 nM; in that of `COc1c(C(C)n2nc(C)c3c(N)ncnc32)cc(Cl)c(C)c1-c1cncnc1` (single isomer, unassigned) [Example 168, 1-(1-(5-chloro-2-methoxy-4-methyl-3-(pyrimidin-5-yl)phenyl)ethyl)-3-methyl-1H-pyrazolo[3,4-d]pyrimidin-4-amine], no more than 10 nM.
